The species named for experiment [1] is Rattus norvegicus. The experiment is described as follows: Lesion frequency was measured in rats. It is filed as functional.
The species named for experiment [2] is Rattus norvegicus. The experiment in a line: ED50 was measured by hyperalgesia assay method. It counts as functional.
Experiment [3] has as its target Prostaglandin G/H synthase 1 (Homo sapiens, UniProt P23219). The experiment is described as follows: IC50 value against Prostaglandin G/H synthase 1 of human platelet rich plasma. It counts as cell-free.
For experiment [4], the species on record is Rattus norvegicus. The experiment is described as follows: Percentage inhibition of the prostaglandin synthesis was measured in rats. It is filed as functional.
Experiment [5] has as its target T1, Prostaglandin G/H synthase 1 (Ovis aries, UniProt P05979).
T1 sequence (P05979 whole entry): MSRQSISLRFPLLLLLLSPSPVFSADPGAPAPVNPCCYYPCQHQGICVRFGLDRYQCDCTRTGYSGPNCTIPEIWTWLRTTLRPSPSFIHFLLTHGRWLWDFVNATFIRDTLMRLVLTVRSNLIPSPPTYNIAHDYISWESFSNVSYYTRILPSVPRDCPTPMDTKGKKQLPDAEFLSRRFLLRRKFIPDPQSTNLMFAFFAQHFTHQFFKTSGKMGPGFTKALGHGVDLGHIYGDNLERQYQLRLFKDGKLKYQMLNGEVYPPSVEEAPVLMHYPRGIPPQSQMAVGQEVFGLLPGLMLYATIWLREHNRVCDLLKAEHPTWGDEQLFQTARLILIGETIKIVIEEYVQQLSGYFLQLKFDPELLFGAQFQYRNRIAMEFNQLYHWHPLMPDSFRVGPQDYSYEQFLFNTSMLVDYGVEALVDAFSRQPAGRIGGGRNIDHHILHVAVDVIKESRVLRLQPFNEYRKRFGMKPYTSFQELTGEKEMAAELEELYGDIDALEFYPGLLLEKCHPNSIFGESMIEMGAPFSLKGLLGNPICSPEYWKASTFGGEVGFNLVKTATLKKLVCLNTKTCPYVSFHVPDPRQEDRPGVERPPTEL
The experiment in a line: IC50 value against ovine Prostaglandin G/H synthase 1.

The species named for experiment [6] is Rattus norvegicus. The experiment in a line: Percentage of gastric damage was measured in rats. It counts as functional, Stomach.
Experiment [7] has as its target T2, Prostaglandin G/H synthase 2 (Homo sapiens, UniProt P35354).
T2 sequence (P35354 whole entry): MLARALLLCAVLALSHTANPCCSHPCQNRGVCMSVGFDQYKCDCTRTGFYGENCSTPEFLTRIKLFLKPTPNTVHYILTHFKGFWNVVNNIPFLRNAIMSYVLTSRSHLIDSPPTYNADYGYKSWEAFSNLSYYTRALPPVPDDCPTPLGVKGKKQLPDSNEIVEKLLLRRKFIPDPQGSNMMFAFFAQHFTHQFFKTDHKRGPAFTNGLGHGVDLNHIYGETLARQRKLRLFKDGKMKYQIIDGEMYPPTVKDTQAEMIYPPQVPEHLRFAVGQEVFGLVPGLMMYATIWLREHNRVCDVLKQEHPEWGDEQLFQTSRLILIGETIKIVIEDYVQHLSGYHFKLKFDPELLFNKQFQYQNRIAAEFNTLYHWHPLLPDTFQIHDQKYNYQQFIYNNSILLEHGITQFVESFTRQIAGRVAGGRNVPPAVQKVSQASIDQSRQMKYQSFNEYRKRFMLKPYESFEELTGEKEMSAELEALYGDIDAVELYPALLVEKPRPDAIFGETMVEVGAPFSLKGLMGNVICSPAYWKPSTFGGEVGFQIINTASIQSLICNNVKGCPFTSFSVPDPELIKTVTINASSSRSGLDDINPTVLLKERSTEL
The experiment in a line: Inhibition of recombinant human prostaglandin G/H synthase 2 (COX-2).

Experiment [8] deals with T3, Prostaglandin G/H synthase 2 (Mus musculus, UniProt Q05769).
T3 sequence (Q05769 whole entry): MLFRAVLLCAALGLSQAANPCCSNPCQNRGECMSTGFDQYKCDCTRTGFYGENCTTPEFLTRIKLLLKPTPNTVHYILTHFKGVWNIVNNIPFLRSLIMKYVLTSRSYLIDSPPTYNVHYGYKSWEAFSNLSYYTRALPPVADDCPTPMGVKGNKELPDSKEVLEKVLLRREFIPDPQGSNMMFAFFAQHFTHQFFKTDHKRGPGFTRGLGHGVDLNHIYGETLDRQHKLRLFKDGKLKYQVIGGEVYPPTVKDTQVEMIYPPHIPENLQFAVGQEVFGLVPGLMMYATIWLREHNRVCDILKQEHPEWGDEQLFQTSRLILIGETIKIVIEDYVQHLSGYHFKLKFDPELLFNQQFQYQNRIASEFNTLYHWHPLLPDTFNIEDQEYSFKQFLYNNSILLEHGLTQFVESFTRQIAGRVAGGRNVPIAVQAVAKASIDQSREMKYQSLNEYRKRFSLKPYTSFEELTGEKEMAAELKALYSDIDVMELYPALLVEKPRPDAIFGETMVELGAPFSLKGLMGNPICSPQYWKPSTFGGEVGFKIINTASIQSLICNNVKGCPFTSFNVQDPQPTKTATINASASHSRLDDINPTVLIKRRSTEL

The species entered for experiment [9] is Rattus norvegicus. The experiment is described as follows: ED50 was measured by CFE assay method. It counts as functional.
In experiment [10] the target is T4, Prostaglandin G/H synthase 1 (Ovis aries) (UniProt P05979).
T4 sequence (whole entry): T1 sequence (P05979 whole entry)
The experiment is described as follows: IC50 value against ovine Prostaglandin G/H synthase 1 at 10 uM.

The target in experiment [11] is T3, Prostaglandin G/H synthase 2. The experiment in a line: IC50 value against Prostaglandin G/H synthase 2 of murine J774A.1 cell line.
Experiment [12] concerns the target T5, Prostaglandin G/H synthase 2 (Homo sapiens) (UniProt P35354).
T5 sequence (whole entry): T2 sequence (P35354 whole entry)
The experiment in a line: IC50 value against recombinant human Prostaglandin G/H synthase 2 at 10 uM.

Experiment [13] has as its target T4, Prostaglandin G/H synthase 1 (Ovis aries). The experiment in a line: IC50 value against ovine Prostaglandin G/H synthase 1 at 30 uM.

Chain of Prostaglandin G/H synthase 1 (Homo sapiens, UniProt P23219) (P23219 whole entry): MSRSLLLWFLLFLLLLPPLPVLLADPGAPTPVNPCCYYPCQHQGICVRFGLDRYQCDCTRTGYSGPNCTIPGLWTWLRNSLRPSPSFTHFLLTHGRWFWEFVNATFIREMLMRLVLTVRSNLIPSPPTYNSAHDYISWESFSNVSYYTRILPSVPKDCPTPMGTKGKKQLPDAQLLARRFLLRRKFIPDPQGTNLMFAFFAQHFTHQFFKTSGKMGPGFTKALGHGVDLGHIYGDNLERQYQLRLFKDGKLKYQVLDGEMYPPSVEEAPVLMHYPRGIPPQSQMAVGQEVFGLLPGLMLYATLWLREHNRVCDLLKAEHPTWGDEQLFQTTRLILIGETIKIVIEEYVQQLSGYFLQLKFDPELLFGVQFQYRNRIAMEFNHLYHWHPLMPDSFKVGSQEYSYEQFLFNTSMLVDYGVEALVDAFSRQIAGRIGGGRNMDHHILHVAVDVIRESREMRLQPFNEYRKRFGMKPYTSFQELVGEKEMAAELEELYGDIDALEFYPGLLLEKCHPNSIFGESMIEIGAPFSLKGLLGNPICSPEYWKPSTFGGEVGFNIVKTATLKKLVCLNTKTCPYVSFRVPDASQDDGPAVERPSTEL

As for `CC(C)(C)c1cc(-c2nsc(NC#N)n2)cc(C(C)(C)C)c1O`, the Lesion frequency in [1] is given as 87.5%. Further, the ED50 in experiment [2] was 0.2 mg/kg; in experiment [9], 5.8 mg/kg. The IC50 in experiment [3] stood at 1.2 µM; in experiment [5], 32 µM; in experiment [7], 0.047 µM; in experiment [8], 0.026 µM. Besides, the Inhibition in experiment [4] turned out to be 87.7%. Also, in experiment [6], the Damaged area is given as 4.91%.

With `CS(=O)(=O)Nc1ccc([N+](=O)[O-])cc1OC1CCCCC1` [NS-398], in [1], the Lesion frequency is 0%. Moreover, the 50% effective dose (ED50) in [2] came out at 7.4 mg/kg; in experiment [9], 0.61 mg/kg. Further, the Inhibition in [4] came out at 30.7%. This compound came in with a Damaged area in experiment [6] of 0%.

`CCSc1nnc(-c2nc(C(C)(C)C)c(O)c(C(C)(C)C)n2)s1`: the IC50 in experiment [3] turned out to be 0.68 µM; in [7], 2 µM; in experiment [8], 0.018 µM. In experiment [10], this compound showed an inhibition of 39%.

As to `CC(C)Oc1nnc(-c2cc(C(C)(C)C)c(O)c(C(C)(C)C)c2)s1`, the IC50 entry in experiment [11] is “Not Active”; in experiment [3], 4.5 µM; in experiment [5], greater than 20 µM; in experiment [7] it was greater than 20 µM.

Regarding `CC(C)(C)c1cc(-c2nnc(SCCC(=O)O)s2)cc(C(C)(C)C)c1O`, the 50% inhibitory concentration (IC50) entry was “Not Active” in [11], greater than 20 µM in experiment [3], greater than 20 µM in [5] and greater than 20 µM in experiment [7].

With `CC(C)(C)c1cc(-c2nnc(SCC(F)(F)F)s2)cc(C(C)(C)C)c1O`, the IC50 result in [11] was “Not Active”; in experiment [3] it was greater than 20 µM; in [5] it was greater than 20 µM; in experiment [7] it was greater than 20 µM.

`CCCSc1nnc(-c2cc(C(C)(C)C)c(O)c(C(C)(C)C)c2)s1`: the IC50 result was “Not Active” in experiment [11], 4.1 µM in experiment [3], greater than 20 µM in experiment [5] and 100 µM in experiment [7].

In experiment [1], `CCSc1nnc(-c2cc(C(C)(C)C)c(O)c(C(C)(C)C)c2)s1.C[N+](C)(C)CC[O-]` yielded a Lesion frequency of 12.5%. Moreover, in experiment [4], the Inhibition was found to be 77.4%. This compound also had a Damaged area in experiment [6] of 0.05%. This compound also yielded a 50% effective dose (ED50) in experiment [9] of 7.1 mg/kg.

Turning to `CS(=O)(=O)c1ccc(-n2nc(C(F)(F)F)cc2-c2ccc(F)cc2)cc1` [SC-58125], the Lesion frequency in experiment [1] turned out to be 0%. Further, the ED50 was 0.3 mg/kg in experiment [2] and greater than 30 mg/kg in [9]. Also, the Inhibition in experiment [4] is on record as -1.58%. Moreover, in experiment [6], the Damaged area is 0%.

On to `CSc1nc(-c2cc(C(C)(C)C)c(O)c(C(C)(C)C)c2)ns1`, for which the results for the inhibition in experiment [12] and in [10] were 20% and 16%, respectively. Moreover, the IC50 in experiment [3] was determined as 3.6 µM; in experiment [8] it was 0.26 µM.

With `CC(C)(C)c1cc(-c2nnc(N=C(N)N)o2)cc(C(C)(C)C)c1O`, the IC50 in experiment [3] turned out to be 2.8 µM; in [7] it was 23 µM; in [8], 0.33 µM. The compound also registered an inhibition in experiment [13] of 16%.

Compound `CC(C)(C)c1cc(-c2nnc(NC#N)s2)cc(C(C)(C)C)c1O` came in with a Lesion frequency in experiment [1] of 12.5%. Besides, the median effective dose (ED50) in [2] turned out to be 1.3 mg/kg; in experiment [9], 7.7 mg/kg. The half-inhibitory concentration (IC50) result in experiment [11] was “Not Active”; in experiment [3], 3.6 µM; in experiment [5], greater than 20 µM; in experiment [7], greater than 20 µM. The Inhibition in experiment [4] was found to be 22%. Moreover, the Damaged area in experiment [6] was determined as 0.02%.

Turning to `CSc1nnc(-c2cc(C(C)C)c(O)c(C(C)C)c2)s1`, the inhibition in experiment [12] was 14%; in experiment [10], 25%. This compound displayed a 50% inhibitory concentration (IC50) in experiment [8] greater than 20 µM.

With `CCCOc1nnc(-c2cc(C(C)(C)C)c(O)c(C(C)(C)C)c2)s1`, the IC50 result in experiment [11] was “Not Active”; in experiment [3], 3.6 µM; in [5] it was greater than 20 µM; in experiment [7], greater than 20 µM.

For `CC(C)(C)c1cc(-c2nnc(N)s2)cc(C(C)(C)C)c1O`, the concentration for half-maximal inhibition (IC50) in [3] was 0.53 µM; in experiment [7], 3.5 µM; in [8], 0.11 µM. The compound also came in with an inhibition in experiment [13] of 34%.

`COc1ccc2c(c1)c(CC(=O)O)c(C)n2C(=O)c1ccc(Cl)cc1` [INDOMETHACIN] registered a Lesion frequency in experiment [1] of 75%. For the same compound, the results for the ED50 in experiment [2] and in experiment [9] were 0.6 mg/kg and 1.6 mg/kg, respectively. For the same compound, the Inhibition in [4] worked out at 13.36%. The compound also showed a Damaged area in experiment [6] of 0.18%.

One may read the ED50 as the dose that gives a 50% effect, or the effect in half of the subjects. Broadly, the IC50 is the concentration that inhibits the measured activity by half. The term Inhibition denotes the change of the read-out against control, counted positive when it falls. A word on the inhibition: it is the percentage by which the read-out fell short of the control.

Source of the values: ChEMBL document CHEMBL1132622, “Synthesis, structure-activity relationships, and in vivo evaluations of substituted di-tert-butylphenols as a novel class of potent, selective, and orally active cyclooxygenase-2 inhibitors. 2. 1,3,4- and 1,2,4-thiadiazole series” (J Med Chem, 1999).
